The experiment has as its target HPK1 (MAP4K1) (Homo sapiens, UniProt Q92918). Description: HPK1 (MAP4K1) kinase Lantha screen assay. It is filed as biochemical. Here is the method:
The effect of the compounds on the activity of HPK1 (MAP4K1) kinase were assessed by Lantha screen assay. • 1. 1×kinase buffer was prepared (50 mM HEPES, pH 7.5, 10 mM MgCl2, 4 mM DT • 2. Compound and assay plates preparation: • 2-1) The compound was diluted to 100× of the final desired highest inhibitor concentration in reaction by 100% DMSO. For example, if a compound was tested at […], then a solution at 500 µM in DMSO was prepared in this step. • 2-2) For each tested compound, the compound was transferred in tubes to one well on a 96-well storage plate and serially diluted by transferring […] of 100% DMSO in the next well and so forth for a total of 6 concentrations. • 2-3) 100 μl of 100% DMSO were added to two empty wells to serve as no compound control and no enzyme control in the same 96-well plate. The resulting plate was labeled as the source plate. • 2-4) 40 μl of compound from source plate were transferred to a new 384-well Echo plate as the intermediate plate. 100 nl of each well from the 384-well Echo plate were transferred to a 384-well assay plate in duplicates. For example, A1 of the 384-well Echo plate was transferred to A1 and A2 of the 384-well plate. A2 of the 384-well Echo plate was transferred to A3 and A4 of the 384-well plate, and so on; • 3. Kinase reaction: a solution of MAP4K1 in 1× kinase buffer at 2-fold the final concentration of each reagent in the assay was prepared. 5 μl of kinase solution was added to each well of the assay plate, except for control wells without enzyme (add 5 μl of 1× kinase buffer instead). The plate was then shaken, then incubated at room temperature for 10 min. A substrate solution of Fluorescein-PKC and ATP in 1× kinase reaction buffer at 2-fold of the final concentration of each reagent desired in the assay was prepared. 5 μl of substrate solution was added to each well of the assay plate to start reaction. The plate was shaken, then covered, and incubated at room temperature for 90 minutes.
Kinase detection: detection solution of 2-fold of final concentration in Antibody Dilution Buffer was prepared. 10 μl of detection solution was added to each well of the assay plate to stop the reaction. The mixtures were mixed briefly with Centrifuge and incubated at room temperature 60 minutes before reading on a plate reader for fluorescence. Data was collected on Envision with excitation at 340 nm and emission at 520 nm and 495 nm.

Chain of HPK1 (MAP4K1) (Q92918 whole entry, species assumed): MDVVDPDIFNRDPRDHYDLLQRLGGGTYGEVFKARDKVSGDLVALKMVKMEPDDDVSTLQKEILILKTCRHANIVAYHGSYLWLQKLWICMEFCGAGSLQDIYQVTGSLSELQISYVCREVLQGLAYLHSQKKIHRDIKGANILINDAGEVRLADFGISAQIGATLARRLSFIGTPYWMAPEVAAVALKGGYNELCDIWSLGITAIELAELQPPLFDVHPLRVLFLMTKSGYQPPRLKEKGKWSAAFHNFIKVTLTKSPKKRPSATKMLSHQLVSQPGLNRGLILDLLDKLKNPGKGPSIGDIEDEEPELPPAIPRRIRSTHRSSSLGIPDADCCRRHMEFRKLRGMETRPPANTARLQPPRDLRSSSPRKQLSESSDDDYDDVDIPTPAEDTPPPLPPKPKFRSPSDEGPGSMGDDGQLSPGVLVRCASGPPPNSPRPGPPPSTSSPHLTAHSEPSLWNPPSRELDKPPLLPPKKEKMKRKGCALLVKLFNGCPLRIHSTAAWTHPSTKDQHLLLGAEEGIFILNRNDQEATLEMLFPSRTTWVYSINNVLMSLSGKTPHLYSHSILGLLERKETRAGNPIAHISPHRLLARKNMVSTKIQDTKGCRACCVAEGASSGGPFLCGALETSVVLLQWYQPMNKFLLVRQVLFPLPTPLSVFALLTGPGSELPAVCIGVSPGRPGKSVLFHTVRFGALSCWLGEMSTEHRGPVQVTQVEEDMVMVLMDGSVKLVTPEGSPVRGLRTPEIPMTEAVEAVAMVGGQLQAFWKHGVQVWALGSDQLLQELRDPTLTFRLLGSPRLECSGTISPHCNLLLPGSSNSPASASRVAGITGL

`CNc1ncc2c(n1)N1CCCN=C1C(c1cc(NC(=O)c3cc(C(F)(F)F)ccn3)ccc1C)=C2` [Compound 105, N-(4-methyl-3-(2-(methylamino)-9,10-dihydro-8H-pyrido[1,6-a:2,3-d′]dipyrimidin-6-yl)phenyl)-4-(trifluoromethyl)picolinamide]: the IC50 (as a rule, the concentration that inhibits the measured activity by half) lay within 0.1 to 10 µM.

`CNc1ncc2c(n1)N1CCN=C1C(c1cc(NC(=O)c3cnnc(C(F)(F)F)c3)ccc1C)=C2` [Compound 150, N-(4-methyl-3-(2-(methylamino)-8,9-dihydroimidazo[1′,2′:1,6]pyrido[2,3-d]pyrimidin-6-yl)phenyl)-6-(trifluoromethyl)pyridazine-4-carboxamide] yielded an IC50 of over 10 µM.

`CNc1ncc2c(n1)N1CCN=C1C(c1cc(NC(=O)C3(C(=O)Nc4ccc(F)cc4)CC3)ccc1Cl)=C2` [Compound 342, N-(4-chloro-3-(2-(methylamino)-8,9-dihydroimidazo[1′,2′:1,6]pyrido[2,3-d]pyrimidin-6-yl)phenyl)-N-(4-fluorophenyl)cyclopropane-1,1-dicarboxamide]: the IC50 is 0.1 to 10 µM.

Take `Cc1ccc(NC(=O)c2cc(C(F)(F)F)ccn2)cc1C1=Cc2cnc(Nc3nnn[nH]3)nc2N2CCN=C12` [Compound 239, N-(3-(2-((1H-tetrazol-5-yl)amino)-8,9-dihydroimidazo[1′,2′:1,6]pyrido[2,3-d]pyrimidin-6-yl)-4-methylphenyl)-4-(trifluoromethyl)picolinamide]: the IC50 lay within 0.1 to 10 µM.

On to `CNc1ncc2c(n1)N1CCN=C1C(c1cc(NC(=O)c3cc(C(F)(F)F)ccn3)cnc1C)=C2` [Compound 191, N-(6-methyl-5-(2-(methylamino)-8,9-dihydroimidazo[1′,2′:1,6]pyrido[2,3-d]pyrimidin-6-yl)pyridin-3-yl)-4-(trifluoromethyl)picolinamide], for which the IC50 was in the range of 0.1 to 10 µM.

As to `CNc1ncc2c(n1)N1CCN=C1C(c1cc(NC(=O)c3cncc(Cl)c3)ccc1C)=C2` [Compound 160, 5-chloro-N-(4-methyl-3-(2-(methylamino)-8,9-dihydroimidazo[1′,2′:1,6]pyrido[2,3-d]pyrimidin-6-yl)phenyl)nicotinamide], the IC50 was over 10 µM.

In turn, `Cc1ccc(NC(=O)c2cc(C(F)(F)F)ccn2)cc1C1=Cc2cnc(Nc3cccnc3)nc2N2CCN=C12` [Compound 215, N-(4-methyl-3-(2-(pyridin-3-ylamino)-8,9-dihydroimidazo[1′,2′:1,6]pyrido[2,3-d]pyrimidin-6-yl)phenyl)-4-(trifluoromethyl)picolinamide] displayed a concentration for half-maximal inhibition (IC50) of under 0.1 µM.

Consider `Cc1ccc(NC(=O)c2cc(C(F)(F)F)ccn2)cc1C1=Cc2cnc(NC3CNC3)nc2N2CCN=C12` [Compound 116, N-(3-(2-(azetidin-3-ylamino)-8,9-dihydroimidazo[1′,2′:1,6]pyrido[2,3-d]pyrimidin-6-yl)-4-methylphenyl)-4-(trifluoromethyl)picolinamide], for which the IC50 lay in the range of 0.1 to 10 µM.

The molecule `Cc1ccc(NC(=O)c2cc(C(F)(F)F)ccn2)cc1C1=Cc2cnc(Nc3ccccc3F)nc2N2CCN=C12` [Compound 225, N-(3-(2-((2-fluorophenyl)amino)-8,9-dihydroimidazo[1′,2′:1,6]pyrido[2,3-d]pyrimidin-6-yl)-4-methylphenyl)-4-(trifluoromethyl)picolinamide] yielded a 50% inhibitory concentration (IC50) of under 0.1 µM.

As for `COCCNc1ncc2c(n1)N1CCN=C1C(c1cc(NC(=O)c3cc(C(F)(F)F)ccn3)ccc1C)=C2` [Compound 112, N-(3-(2-((2-methoxyethyl)amino)-8,9-dihydroimidazo[1′,2′:1,6]pyrido[2,3-d]pyrimidin-6-yl)-4-methylphenyl)-4-(trifluoromethyl)picolinamide], the IC50 lay in the range of 0.1 to 10 µM.

Turning to `Cc1cc(F)c(NC(=O)c2cccc(C(F)(F)F)n2)cc1C1=Cc2cnc(NC3COC3)nc2N2CCN=C12` [Compound 179, N-(2-fluoro-4-methyl-5-(2-(oxetan-3-ylamino)-8,9-dihydroimidazo[1′,2′:1,6]pyrido[2,3-d]pyrimidin-6-yl)phenyl)-6-(trifluoromethyl)picolinamide], the half-maximal inhibitory concentration (IC50) fell in the range of 0.1 to 10 µM.

Consider `Cc1ccc(Nc2ncc3c(n2)N2CCN=C2C(c2cc(NC(=O)c4cc(C(F)(F)F)ccn4)c(F)cc2C)=C3)cn1` [Compound 267, N-(2-fluoro-4-methyl-5-(2-((6-methylpyridin-3-yl)amino)-8,9-dihydroimidazo[1′,2′:1,6]pyrido[2,3-d]pyrimidin-6-yl)phenyl)-4-(trifluoromethyl)picolinamide], for which the IC50 is under 0.1 µM.

The molecule `CNc1ncc2c(n1)N1CCN=C1C(c1cc(NC(=O)c3nccc(C(F)(F)F)n3)ccc1C)=C2` [Compound 148, N-(4-methyl-3-(2-(methylamino)-8,9-dihydroimidazo[1′,2′:1,6]pyrido[2,3-d]pyrimidin-6-yl)phenyl)-4-(trifluoromethyl)pyrimidine-2-carboxamide] displayed a 50% inhibitory concentration (IC50) of 0.1 to 10 µM.

The molecule `Cc1ccc(NC(=O)c2cc(C(F)(F)F)ccn2)cc1C1=Cc2cnc(NS(C)(=O)=O)nc2N2CCN=C12` [Compound 117, N-(4-methyl-3-(2-(methylsulfonamido)-8,9-dihydroimidazo[1′,2′:1,6]pyrido[2,3-d]pyrimidin-6-yl)phenyl)-4-(trifluoromethyl)picolinamide] displayed a concentration for half-maximal inhibition (IC50) of over 10 µM.

The molecule `CNc1ncc2c(n1)N1C[C@@H](C)N=C1C(c1cc(NC(=O)c3cc(C(F)(F)F)ccn3)ccc1C)=C2` [Compound 127, (R)—N-(4-methyl-3-(8-methyl-2-(methylamino)-8,9-dihydroimidazo[1′,2′:1,6]pyrido[2,3-d]pyrimidin-6-yl)phenyl)-4-(trifluoromethyl)picolinamide] gave a 50% inhibitory concentration (IC50) of 0.1 to 10 µM.

Consider `CNc1ncc2c(n1)N1CCN=C1C(c1cc(C(=O)Nc3cc(C(F)(F)F)ccn3)c(F)cc1C)=C2` [Compound 277, 2-fluoro-4-methyl-5-(2-(methylamino)-8,9-dihydroimidazo[1′,2′:1,6]pyrido[2,3-d]pyrimidin-6-yl)-N-(4-(trifluoromethyl)pyridin-2-yl)benzamide], for which the 50% inhibitory concentration (IC50) lay in the range of 0.1 to 10 µM.

`CNc1ncc2c(n1)N1CCN=C1C(c1cc(NC(=O)C3CCNC(C(F)(F)F)C3)ccc1C)=C2` (centres unmarked) [Compound 155, N-(4-methyl-3-(2-(methylamino)-8,9-dihydroimidazo[1′,2′:1,6]pyrido[2,3-d]pyrimidin-6-yl)phenyl)-2-(trifluoromethyl)piperidine-4-carboxamide]: the half-inhibitory concentration (IC50) is over 10 µM.

On to `CNc1ncc2c(n1)N1CCN=C1C(c1cc(NC(=O)c3cc(C#N)ccn3)ccc1C)=C2` [Compound 159, 4-cyano-N-(4-methyl-3-(2-(methylamino)-8,9-dihydroimidazo[1′,2′:1,6]pyrido[2,3-d]pyrimidin-6-yl)phenyl)picolinamide], for which the IC50 lay in the range of 0.1 to 10 µM.

`Cc1ccc(Nc2ncc3c(n2)N2CCN=C2C(c2ccccc2Cl)=C3)cn1` [Compound 101, 6-(2-chlorophenyl)-N-(6-methylpyridin-3-yl)-8,9-dihydroimidazo[1′,2′:1,6]pyrido[2,3-d]pyrimidin-2-amine]: the IC50 was in the range of 0.1 to 10 µM.

Turning to `CNc1ncc2c(n1)N1CCN=C1C(c1ccc(F)c(C(=O)Nc3cc(C(F)(F)F)ccn3)c1)=C2` [Compound 278, 2-fluoro-5-(2-(methylamino)-8,9-dihydroimidazo[1′,2′:1,6]pyrido[2,3-d]pyrimidin-6-yl)-N-(4-(trifluoromethyl)pyridin-2-yl)benzamide], the IC50 was over 10 µM.

As to `CNc1ncc2c(n1)N1CCN=C1C(c1cc(NC(=O)c3cc(C(F)(F)F)ccn3)ccc1C)=N2` [Compound 124, N-(4-methyl-3-(2-(methylamino)-8,9-dihydroimidazo[2,1-h]pteridin-6-yl)phenyl)-4-(trifluoromethyl)picolinamide], the concentration for half-maximal inhibition (IC50) lay within 0.1 to 10 µM.

As to `Cc1ccc(NC(=O)c2cc(C(F)(F)F)ccn2)cc1C1=Cc2cnc(Nc3cn(C)nn3)nc2N2CCN=C12` [Compound 237, N-(4-methyl-3-(2-((1-methyl-1H-1,2,3-triazol-4-yl)amino)-8,9-dihydroimidazo[1′,2′:1,6]pyrido[2,3-d]pyrimidin-6-yl)phenyl)-4-(trifluoromethyl)picolinamide], the 50% inhibitory concentration (IC50) was under 0.1 µM.

In turn, `Cc1cnc(Nc2ncc3c(n2)N2CCN=C2C(c2cc(NC(=O)c4cc(C(F)(F)F)ccn4)ccc2C)=C3)s1` [Compound 232, N-(4-methyl-3-(2-((5-methylthiazol-2-yl)amino)-8,9-dihydroimidazo[1′,2′:1,6]pyrido[2,3-d]pyrimidin-6-yl)phenyl)-4-(trifluoromethyl)picolinamide] yielded a half-inhibitory concentration (IC50) of under 0.1 µM.

For the origin of these results see patent publication US20230303570A1, “KINASE INHIBITORS AND USES THEREOF” (ABM Therapeutics Corporation, priority 2020, published 2023).
